Laboratory results taken from ChEMBL document CHEMBL1140819, “Protected aminooxyprolines for expedited library synthesis: application to Tsg101-directed proline-oxime containing peptides” (Bioorg Med Chem Lett, 2008).
*1 amine or outer side, *2 acyl side, *3 side chain or, on linkers, in order; H or OH if unused. Where a SMILES comes first, the peptide text is derived from it. [ ]: non-standard residue; d: D form. The star is where a group is joined. ξ: configuration not given here. Fluorescein(5-NHCS) = O=C1OC2(c3ccc(O)cc3Oc3cc(O)ccc32)c2cc(NC(=S)*)ccc21; X34 = O=C([C@@H]1[C@@H](O/N=C\c2ccc([N+](=O)[O-])o2)CCN1[*:1])[*:2]; X10 = O=C([C@@H]1C[C@H](O/N=C\c2c(F)c(F)c(F)c(F)c2F)CN1[*:1])[*:2]; X23 = O=C([C@@H]1[C@@H](O/N=C\c2ccc(OCc3ccccc3)cc2)CCN1[*:1])[*:2]; X7 = O=C([C@@H]1[C@@H](O/N=C\c2c(F)c(F)c(F)c(F)c2F)CCN1[*:1])[*:2]; X9 = O=C([C@@H]1C[C@H](O/N=C\c2ccc([N+](=O)[O-])cc2)CN1[*:1])[*:2]; X33 = CC(/C=N\O[C@H]1C[C@@H](C(=O)[*:2])N([*:1])C1)=C\c1ccccc1; X16 = COc1ccc(/C=N\O[C@H]2CCN([*:1])[C@@H]2C(=O)[*:2])cc1O; X14 = CCCCCCCC/C=N\O[C@@H]1C[C@@H](C(=O)[*:2])N([*:1])C1; X20 = O=C(O)CC/C=N\O[C@H]1CCN([*:1])[C@@H]1C(=O)[*:2]; X6 = O=C([C@@H]1C[C@@H](O/N=C\c2ccoc2)CN1[*:1])[*:2]; ξPip = O=C(O)C1CCCCN1; Ava = NCCCCC(=O)O

Molecular target: T1, Tumor susceptibility gene 101 protein (Homo sapiens, UniProt Q99816)
T1 sequence (Q99816 whole entry): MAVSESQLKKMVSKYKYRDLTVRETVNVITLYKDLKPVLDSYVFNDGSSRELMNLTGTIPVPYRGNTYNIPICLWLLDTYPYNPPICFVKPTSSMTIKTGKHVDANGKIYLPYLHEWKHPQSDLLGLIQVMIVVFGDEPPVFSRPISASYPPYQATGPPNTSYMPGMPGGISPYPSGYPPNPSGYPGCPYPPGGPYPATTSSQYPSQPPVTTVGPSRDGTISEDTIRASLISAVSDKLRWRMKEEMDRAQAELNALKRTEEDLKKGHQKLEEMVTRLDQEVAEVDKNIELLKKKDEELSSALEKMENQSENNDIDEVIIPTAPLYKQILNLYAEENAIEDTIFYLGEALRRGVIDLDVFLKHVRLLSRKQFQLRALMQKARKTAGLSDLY
Assay: Binding affinity to Tsg101

Structure (SMILES)	IC50
C[C@H](NC(=O)[C@@H](NC(=O)[C@@H]1CCCN1C(=O)[C@H](CCC(=O)O)NC(=O)[C@@H]1CCCN1C(=O)CCCCNC(=S)Nc1ccc2c(c1)C1(OC2=O)c2ccc(O)cc2Oc2cc(O)ccc21)[C@@H](C)O)C(=O)N1CCCCC1C(=O)N1CC[C@H](O/N=C\c2c(F)c(F)c(F)c(F)c2F)[C@H]1C(=O)N[C@@H](CCC(=O)O)C(=O)N[C@@H](CCC(=O)O)C(N)=O (stereo not given in full) ({Fluorescein(5-NHCS)-Ava}-PEPTA[ξPip][X7]EE-NH2)	19 µM
C[C@H](NC(=O)[C@@H](NC(=O)[C@@H]1CCCN1C(=O)[C@H](CCC(=O)O)NC(=O)[C@@H]1CCCN1C(=O)CCCCNC(=S)Nc1ccc2c(c1)C1(OC2=O)c2ccc(O)cc2Oc2cc(O)ccc21)[C@@H](C)O)C(=O)N1CCCCC1C(=O)N1C[C@@H](O/N=C\c2ccc([N+](=O)[O-])cc2)C[C@H]1C(=O)N[C@@H](CCC(=O)O)C(=O)N[C@@H](CCC(=O)O)C(N)=O (stereo not given in full) ({Fluorescein(5-NHCS)-Ava}-PEPTA[ξPip][X9]EE-NH2)	91 µM
CC(/C=N\O[C@H]1C[C@@H](C(=O)N[C@@H](CCC(=O)O)C(=O)N[C@@H](CCC(=O)O)C(N)=O)N(C(=O)C2CCCCN2C(=O)[C@H](C)NC(=O)[C@@H](NC(=O)[C@@H]2CCCN2C(=O)[C@H](CCC(=O)O)NC(=O)[C@@H]2CCCN2C(=O)CCCCNC(=S)Nc2ccc3c(c2)C2(OC3=O)c3ccc(O)cc3Oc3cc(O)ccc32)[C@@H](C)O)C1)=C\c1ccccc1 (stereo not given in full) ({Fluorescein(5-NHCS)-Ava}-PEPTA[ξPip][X33]EE-NH2)	58 µM
C[C@H](NC(=O)[C@@H](NC(=O)[C@@H]1CCCN1C(=O)[C@H](CCC(=O)O)NC(=O)[C@@H]1CCCN1C(=O)CCCCNC(=S)Nc1ccc2c(c1)C1(OC2=O)c2ccc(O)cc2Oc2cc(O)ccc21)[C@@H](C)O)C(=O)N1CCCCC1C(=O)N1C[C@@H](O/N=C\c2c(F)c(F)c(F)c(F)c2F)C[C@H]1C(=O)N[C@@H](CCC(=O)O)C(=O)N[C@@H](CCC(=O)O)C(N)=O (stereo not given in full) ({Fluorescein(5-NHCS)-Ava}-PEPTA[ξPip][X10]EE-NH2)	139 µM
CCCCCCCC/C=N\O[C@@H]1C[C@@H](C(=O)N[C@@H](CCC(=O)O)C(=O)N[C@@H](CCC(=O)O)C(N)=O)N(C(=O)C2CCCCN2C(=O)[C@H](C)NC(=O)[C@@H](NC(=O)[C@@H]2CCCN2C(=O)[C@H](CCC(=O)O)NC(=O)[C@@H]2CCCN2C(=O)CCCCNC(=S)Nc2ccc3c(c2)C2(OC3=O)c3ccc(O)cc3Oc3cc(O)ccc32)[C@@H](C)O)C1 (stereo not given in full) ({Fluorescein(5-NHCS)-Ava}-PEPTA[ξPip][X14]EE-NH2)	54 µM
C[C@H](NC(=O)[C@@H](NC(=O)[C@@H]1CCCN1C(=O)[C@H](CCC(=O)O)NC(=O)[C@@H]1CCCN1C(=O)CCCCNC(=S)Nc1ccc2c(c1)C1(OC2=O)c2ccc(O)cc2Oc2cc(O)ccc21)[C@@H](C)O)C(=O)N1CCCCC1C(=O)N1C[C@H](O/N=C\c2ccoc2)C[C@H]1C(=O)N[C@@H](CCC(=O)O)C(=O)N[C@@H](CCC(=O)O)C(N)=O (stereo not given in full) ({Fluorescein(5-NHCS)-Ava}-PEPTA[ξPip][X6]EE-NH2)	30 µM

Stronger by IC50, values ahead:

IC50	Structure (SMILES)
18 µM	C[C@H](NC(=O)[C@@H](NC(=O)[C@@H]1CCCN1C(=O)[C@H](CCC(=O)O)NC(=O)[C@@H]1CCCN1C(=O)CCCCNC(=S)Nc1ccc2c(c1)C1(OC2=O)c2ccc(O)cc2Oc2cc(O)ccc21)[C@@H](C)O)C(=O)N1CCCCC1C(=O)N1CC[C@H](O/N=C\c2ccc(OCc3ccccc3)cc2)[C@H]1C(=O)N[C@@H](CCC(=O)O)C(=O)N[C@@H](CCC(=O)O)C(N)=O (stereo not given in full) ({Fluorescein(5-NHCS)-Ava}-PEPTA[ξPip][X23]EE-NH2)
13 µM	COc1ccc(/C=N\O[C@H]2CCN(C(=O)C3CCCCN3C(=O)[C@H](C)NC(=O)[C@@H](NC(=O)[C@@H]3CCCN3C(=O)[C@H](CCC(=O)O)NC(=O)[C@@H]3CCCN3C(=O)CCCCNC(=S)Nc3ccc4c(c3)C3(OC4=O)c4ccc(O)cc4Oc4cc(O)ccc43)[C@@H](C)O)[C@@H]2C(=O)N[C@@H](CCC(=O)O)C(=O)N[C@@H](CCC(=O)O)C(N)=O)cc1O (stereo not given in full) ({Fluorescein(5-NHCS)-Ava}-PEPTA[ξPip][X16]EE-NH2)
16 µM	C[C@H](NC(=O)[C@@H](NC(=O)[C@@H]1CCCN1C(=O)[C@H](CCC(=O)O)NC(=O)[C@@H]1CCCN1C(=O)CCCCNC(=S)Nc1ccc2c(c1)C1(OC2=O)c2ccc(O)cc2Oc2cc(O)ccc21)[C@@H](C)O)C(=O)N1CCCCC1C(=O)N1CC[C@H](O/N=C\CCC(=O)O)[C@H]1C(=O)N[C@@H](CCC(=O)O)C(=O)N[C@@H](CCC(=O)O)C(N)=O (stereo not given in full) ({Fluorescein(5-NHCS)-Ava}-PEPTA[ξPip][X20]EE-NH2)
18 µM	C[C@H](NC(=O)[C@@H](NC(=O)[C@@H]1CCCN1C(=O)[C@H](CCC(=O)O)NC(=O)[C@@H]1CCCN1C(=O)CCCCNC(=S)Nc1ccc2c(c1)C1(OC2=O)c2ccc(O)cc2Oc2cc(O)ccc21)[C@@H](C)O)C(=O)N1CCCCC1C(=O)N1CC[C@H](O/N=C\c2ccc([N+](=O)[O-])o2)[C@H]1C(=O)N[C@@H](CCC(=O)O)C(=O)N[C@@H](CCC(=O)O)C(N)=O (stereo not given in full) ({Fluorescein(5-NHCS)-Ava}-PEPTA[ξPip][X34]EE-NH2)
